The source made the active and inactive calls. The calls are words filed in the database; no cut-off is given here.
Assays:
THP-1 [1] = test: Antiinflammatory activity in human THP-1 cells assessed as reduction in LPS-induced TNF alpha secretion at 10 uM incubated for 12 hrs measured by ELISA; type: functional, cell-based
THP-1 [2] = test: Antiinflammatory activity in human THP-1 cells assessed as reduction in LPS-induced IL6 secretion at 10 uM incubated for 12 hrs measured by ELISA; type: functional, cell-based
THP-1 [3] = test: Cytotoxicity against human THP-1 cells assessed as reduction in cell viability at 1 to 10 uM; type: cell-based; conditions: thp-1, 10 µM
[4] = Metabolic stability in human liver microsomes assessed as half life in presence of NADPH by LC-MS analysis; type: ADME, Microsome
[5] = Metabolic stability in mouse liver microsomes assessed as half life in presence of NADPH by LC-MS analysis; type: ADME, Microsome
[6] = Tmax in BALB/c mouse at 10 mg/kg, po by LC/MS-MS analysis; type: ADME, organism-based; conditions: in vivo
[7] = Tmax in BALB/c mouse at 2 mg/kg, iv by LC/MS-MS analysis; type: ADME, organism-based; conditions: in vivo
[8] = Cmax in BALB/c mouse at 10 mg/kg, po by LC/MS-MS analysis; type: ADME, organism-based; set-up: route oral, dose 10 mg/kg; conditions: in vivo
[9] = Cmax in BALB/c mouse at 2 mg/kg, iv by LC/MS-MS analysis; type: ADME, organism-based; set-up: route intravenous, dose 2 mg/kg; conditions: in vivo
[10] = AUC (0 to t) in BALB/c mouse at 10 mg/kg, po by LC/MS-MS analysis; type: ADME, organism-based; set-up: dose 10 mg/kg; conditions: in vivo
[11] = AUC (0 to t) in BALB/c mouse at 2 mg/kg, iv by LC/MS-MS analysis; type: ADME, organism-based; set-up: dose 2 mg/kg; conditions: in vivo
[12] = AUC (0 to infinity) in BALB/c mouse at 10 mg/kg, po by LC/MS-MS analysis; type: ADME, organism-based; set-up: route oral, time infinity, dose 10 mg/kg; conditions: in vivo
[13] = AUC (0 to infinity) in BALB/c mouse at 2 mg/kg, iv by LC/MS-MS analysis; type: ADME, organism-based; set-up: route intravenous, time infinity, dose 2 mg/kg; conditions: in vivo
[14] = Half life in BALB/c mouse at 10 mg/kg, po by LC/MS-MS analysis; type: ADME, organism-based; conditions: in vivo
[15] = Half life in BALB/c mouse at 2 mg/kg, iv by LC/MS-MS analysis; type: ADME, organism-based; conditions: in vivo
[16] = Bioavailability in BALB/c mouse at 10 mg/kg, po by LC/MS-MS analysis; type: ADME, organism-based; conditions: in vivo
Mus musculus [17] = test: Hepatoprotective activity in LPS/D-GalN-induced fulminant hepatic failure BALB/c mouse model assessed as inhibition of serum AST level at 200 mg/kg, IG once daily for 3 days; type: functional, organism-based; conditions: time 3.0 day
Mus musculus [18] = test: Hepatoprotective activity in LPS/D-GalN-induced fulminant hepatic failure BALB/c mouse model assessed as inhibition of serum ALT level at 200 mg/kg, IG once daily for 3 days; type: functional, organism-based; conditions: time 3.0 day
Mus musculus [19] = test: Antiinflammatory activity against LPS/D-GalN-induced fulminant hepatic failure BALB/c mouse model assessed as inhibition of IL-6 mRNA expression in liver at 200 mg/kg, IG once daily for 3 days by RT-PCR analysis; type: functional, organism-based; conditions: time 3.0 day
Mus musculus [20] = test: Antiinflammatory activity against LPS/D-GalN-induced fulminant hepatic failure BALB/c mouse model assessed as inhibition of TNFalpha mRNA expression in liver at 200 mg/kg, IG once daily for 3 days by RT-PCR analysis; type: functional, organism-based; conditions: time 3.0 day
Mus musculus [21] = test: Hepatoprotective activity in LPS/D-GalN-induced fulminant hepatic failure BALB/c mouse model assessed as changes in liver histology at 200 mg/kg, IG once daily for 3 days by H/E staining based analysis; type: functional, organism-based; conditions: time 3.0 day
Homo sapiens [22] = species: Homo sapiens; test: Effect on recombinant AMPKalpha1beta1gamma1 (unknown origin) phosphorylation
Homo sapiens [23] = species: Homo sapiens; test: Effect on recombinant AMPK alpha2beta2gamma1 (unknown origin) phosphorylation

half-life [4]: > 120 min
half-life [5]: > 120 min
Tmax [6]: 25.2 min
Tmax [7]: 4.8 min
Cmax [8]: 1840 ng/mL
Cmax [9]: 4410 ng/mL
AUC(0-t) [10]: 1670 ng·h/mL
AUC(0-t) [11]: 1350 ng·h/mL
AUC(0-inf) [12]: 1690 ng·h/mL
AUC(0-inf) [13]: 1360 ng·h/mL
half-life [14]: 21 min
half-life [15]: 21 min
bioavailability [16]: 24.7%
Activity (Homo sapiens [22]): inactive
Activity (Homo sapiens [23]): inactive
SMILES: CC1(C)CC[C@]2(C(=O)O)CC[C@]3(C)C(=C2C1)CC[C@@H]1[C@@]2(C)CC[C@H](O[C@@H]4OC[C@H](O)[C@H](O)[C@H]4O)C(C)(C)[C@@H]2CC[C@]13C
Activity (THP-1 [1]): Active
Activity (THP-1 [2]): Active
Activity (THP-1 [3]): Non-Toxic
Activity (Mus musculus [17]): Active
Activity (Mus musculus [18]): Active
Activity (Mus musculus [19]): Active
Activity (Mus musculus [20]): Active
Activity (Mus musculus [21]): Active
